Measured values published in US8951563B2, “Antibiotic drug delivery and potentiation” (Technion Research & Development Foundation Limited, priority 2009, dated 2015).

Experiments:
Assay type in all cases: cell-based
E. coli U-16327 = test: Antibiotic MIC / chemo-sensitization checkerboard with OAK, E. coli U-16327; conditions: for MIC: Escherichia coli, U16327, OAK: None; for FIC: antibiotic combined with C12K-7α8
Method: (§1) Bacteria were grown overnight in LB growth medium and diluted 10,000-fold in same medium.
(§2) Inhibition of proliferation was determined by optical density measurements (620 nm) after incubation overnight at 37° C.
(§3) Synergistic effect of the combinations was assessed by determination of the fractional inhibitory concentration (FIC) where FIC=(MIC OAK in combination with antibiotic)/(MIC OAK alone)+(MIC antibiotic in combination)/(MIC antibiotic alone). Synergy was determined for FIC 0.5.

E. coli 14182 = test: Antibiotic MIC / chemo-sensitization checkerboard with OAK, E. coli 14182; conditions: for MIC: Escherichia coli, OAK: None; for FIC: antibiotic combined with C12K-7α8
Method: as §1, §2, §3

E. coli 14384 = test: Antibiotic MIC / chemo-sensitization checkerboard with OAK, E. coli 14384; conditions: for MIC: Escherichia coli; for FIC: antibiotic combined with C12K-7α8
Method: as §1, §2, §3

[1] = tested on: E. coli AG100, wild type (efflux+); conditions: sub-MIC C12K-7α8
Method: as §1, §3

[2] = tested on: E. coli AG100A, ΔacrAB (efflux−); conditions: sub-MIC C12K-7α8
Method: as §1, §3

E. coli U-16329 = test: Antibiotic MIC / chemo-sensitization checkerboard with OAK, E. coli U-16329; conditions: for MIC: Escherichia coli, U16329, OAK: None; for FIC: antibiotic combined with C12K-7α8
Method: as §1, §2, §3

| Compound | Antibiotic MIC in presence of OAK (E. coli U-16327; +1.7 μg/ml C12K-7α8 (¼ MIC)) [µg/mL] | Antibiotic MIC in presence of OAK (E. coli U-16327; +3.5 μg/ml C12K-7α8 (½ MIC)) [µg/mL] | Antibiotic MIC in presence of OAK (E. coli U-16327; +[…] C12K-7α8 (⅓ MIC)) [µg/mL] | MIC (E. coli U-16327) [µg/mL] | Antibiotic MIC in presence of OAK (E. coli 14182; +1.7 μg/ml C12K-7α8 (¼ MIC)) [µg/mL] | Antibiotic MIC in presence of OAK (E. coli 14182; +3.5 μg/ml C12K-7α8 (½ MIC)) [µg/mL] | Antibiotic MIC in presence of OAK (E. coli 14182; +[…] C12K-7α8 (⅓ MIC)) [µg/mL] | MIC (E. coli 14182) [µg/mL] | Antibiotic MIC in presence of OAK (E. coli 14384; +1.7 μg/ml C12K-7α8 (¼ MIC)) [µg/mL] | Antibiotic MIC in presence of OAK (E. coli 14384; +3.5 μg/ml C12K-7α8 (½ MIC)) [µg/mL] | Antibiotic MIC in presence of OAK (E. coli 14384; +[…] C12K-7α8 (⅓ MIC)) [µg/mL] | MIC (E. coli 14384; OAK: None) [µg/mL] | FIC [1] | FIC [2] | Antibiotic MIC in presence of OAK (E. coli U-16329; +1.7 μg/ml C12K-7α8 (¼ MIC)) [µg/mL] | Antibiotic MIC in presence of OAK (E. coli U-16329; +3.5 μg/ml C12K-7α8 (½ MIC)) [µg/mL] | Antibiotic MIC in presence of OAK (E. coli U-16329; +[…] C12K-7α8 (⅓ MIC)) [µg/mL] | MIC (E. coli U-16329) [µg/mL] | FIC (E. coli U-16329) | FIC (E. coli U-16327) | further results |
| --- | --- | --- | --- | --- | --- | --- | --- | --- | --- | --- | --- | --- | --- | --- | --- | --- | --- | --- | --- | --- | --- |
| CC1(C)S[C@@H]2[C@H](NC(=O)Cc3ccccc3)C(=O)N2[C@H]1C(=O)O [Penicillin G, penicillin G] | >512 | 512 | >512 | > 512 | >512 | >512 | >512 | > 512 | >512 | >512 | >512 | > 512 | 0.58 | 1.0 | 256 | 128 to 256 | 256 | 256 | 1 | – | – |
| CCN1CCN(C(=O)N[C@@H](C(=O)N[C@@H]2C(=O)N3[C@@H]2SC(C)(C)[C@@H]3C(=O)O)c2ccccc2)C(=O)C1=O [Piperacillin, piperacillin] | 256 | 64 | 128 to 256 | 256 | >512 | 64 | >512 | 512 | 256 to 512 | 128 | 256 to 512 | 256 to 512 | 0.75 | – | 128 to 256 | 64 | 128 | 256 | 0.75 | 0.63 | FIC (E. coli 14182): 0.63; FIC (E. coli 14384): 0.63 |
| CO[C@H]1/C=C/O[C@@]2(C)Oc3c(C)c(O)c4c(O)c(c(/C=N/N5CCN(C)CC5)c(O)c4c3C2=O)NC(=O)/C(C)=C\C=C\[C@H](C)[C@H](O)[C@@H](C)[C@@H](O)[C@@H](C)[C@H](OC(C)=O)[C@@H]1C [Rifampin, rifampicin] | 2 | 0.25 | 1 | 8 to 16 | 4 | 0.25 | 2 | 16 | 1 | 0.03 | 0.06 to 0.13 | 8 | 0.46 | 0.75 | 4 | 1 | 2 | 16 | 0.46 | 0.38 | FIC (E. coli 14182): 0.46; FIC (E. coli 14384): 0.31 |
| gentamicin [Gentamycin] | 4 | 1 to 2 | 2 | – | – | 64 to 128 | – | – | 4 | 2 | 2 to 4 | – | 1.0 | 1.0 | – | – | – | – | – | 0.75 | Antibiotic MIC (E. coli U-16327; OAK: None): 4 µg/mL; FIC (E. coli 14182): 1; Antibiotic MIC (E. coli 14384; OAK: None): 4 µg/mL; FIC (E. coli 14384): 1 |
